{"source": "patent US10744072B2", "about": "“Cosmetic composition for oral administration for reinforcing the skin barrier” (NUTRICOS Technologies, priority 2015, dated 2020)", "format_in_all_cases": "cell-based", "key": {"[1]": {"tested_on": "GAPDH", "experiment": "Gene expression of reference gene GAPDH in human keratinocytes NHEK per RT-qPCR", "conditions": "each compound at 10 μg/ml, 18 hours incubation", "protocol": "(§1) The effect of the lycopene and manganese was studied separately then in combination on the gene expression profile (RNAm) of human keratinocytes NHEK (normal human epidermal keratinocytes) per RT-qPCR.\n(§2) A 24-well plate was seeded with keratinocytes then placed into culture for 24 hours. The culture medium was then replaced with the test medium comprising according to the cases 0 (negative control), one or two tested compounds. The cells were incubated in this test medium for 18 hours then washed and frozen at −80° C. Each condition was carried out in triplicate. Two samples of each triplicate were grouped together, then the RNAm was extracted therefrom using TriPure Isolation Reagent® according to the supplier's recommendations. The ADNc was synthesized via reverse transcription of total RNA by “Transcriptor Reverse Transcriptase” from Roche. Then a quantitative PCR was performed in the presence of a fluorophore. The incorporation of fluorophore in the amplified DNA was measured during the PCR cycles. Two genes were used as a reference (RPS28 ad GADPH), in order to standardize the results. As such the level of expression of the studied genes was compared to the average level of expression of these two reference genes for all of the conditions tested.\n(§3) For this test, the source of lycopene is Lyc-o-Mato marketed by Lycored and the source manganese is manganese sulfate."}, "[2]": {"tested_on": "SPRR2D", "experiment": "Gene expression (RNAm) of SPRR2D in human keratinocytes NHEK per RT-qPCR", "conditions": "each compound at 10 μg/ml, 18 hours incubation, standardized to RPS28 and GAPDH", "protocol": "as §1, §2, §3"}, "[3]": {"tested_on": "RPS28", "experiment": "Gene expression of reference gene RPS28 in human keratinocytes NHEK per RT-qPCR", "conditions": "each compound at 10 μg/ml, 18 hours incubation", "protocol": "as §1, §2, §3"}}}
{"substance": "manganese sulfate", "values": [{"measurement": "Control (GAPDH) expression expressed as a percentage in relation to the conditions without added compound", "setting": "[1]", "result": 96, "unit": "%"}, {"measurement": "SPRR2D expression expressed as a percentage in relation to the conditions without added compound", "setting": "[2]", "result": 106, "unit": "%"}, {"measurement": "Control (RPS28) expression expressed as a percentage in relation to the conditions without added compound", "setting": "[3]", "result": 117, "unit": "%"}]}
